Laboratory results from patent US20260265321A1, “PEPTIDE AND POLYPEPTIDE INHIBITING THE NF-KB SIGNALING PATHWAY” (Centre National de la Recherche Scientifique, priority 2023, published 2026).
Residues, ends and D or L forms follow the SMILES beside them.

Assays:
[1] = target: T1, 6×His-IKKβ(1-669) EE (Homo sapiens, UniProt O14920, S177E/S181E); test: MBP-pulldown of recombinant IKKβ by MBP-peptide fusions; type: binding; settings: 0.3 μM IKKβ, Western blot
T1 construct: a nearly full-length (residues 1-669) and constitutively active (S177E/S181E) mutant construct of human IKKβ; made in house; host or cells: Sf21 insect cells (baculovirus)
T1 sequence (O14920 1-669 S177E/S181E): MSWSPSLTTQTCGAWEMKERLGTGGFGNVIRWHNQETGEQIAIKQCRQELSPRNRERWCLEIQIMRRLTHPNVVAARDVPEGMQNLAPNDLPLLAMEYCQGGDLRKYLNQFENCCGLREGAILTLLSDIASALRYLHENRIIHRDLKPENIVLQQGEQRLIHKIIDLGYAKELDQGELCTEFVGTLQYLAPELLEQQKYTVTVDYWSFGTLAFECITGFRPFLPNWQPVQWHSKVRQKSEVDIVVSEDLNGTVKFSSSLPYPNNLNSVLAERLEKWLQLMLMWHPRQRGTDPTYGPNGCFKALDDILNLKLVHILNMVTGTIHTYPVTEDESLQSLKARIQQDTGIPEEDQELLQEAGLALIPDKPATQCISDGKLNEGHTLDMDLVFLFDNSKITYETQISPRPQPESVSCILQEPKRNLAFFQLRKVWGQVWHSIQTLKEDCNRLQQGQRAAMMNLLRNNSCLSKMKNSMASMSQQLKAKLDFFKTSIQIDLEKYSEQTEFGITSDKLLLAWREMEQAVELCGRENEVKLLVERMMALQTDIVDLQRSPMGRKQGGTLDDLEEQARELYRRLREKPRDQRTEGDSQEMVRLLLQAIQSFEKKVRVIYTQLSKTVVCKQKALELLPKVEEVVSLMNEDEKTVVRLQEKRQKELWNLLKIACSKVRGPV
Protocol: Experiments were performed in PD buffer (20 mM Tris pH 8.0, 150 mM NaCl, 2 mM DTT). For each experiment, 10 μl of amylose resin (dry bead volume) coupled to MBP-fusion constructs were incubated with […] of purified 6×His-IKKα(10-667) EE and 6×His-IKKβ (1-669) EE constructs adjusted at a concentration of 0.3 μM for 2 hours at 4° C. After two quick washing steps with PD buffer, complexes were eluted by incubation with 20 μl of the same buffer supplemented with 20 mM maltose for 15 minutes at 4° C. After mild centrifugation, supernatants were recovered and migrated onto two separate 10% SDS-PAGE gels. One gel was used for Western blot analysis to detect His-IKKα or His-IKKβ using and anti-6×His antibody (Sigma, #SAB4301134), the other for Coomassie staining to detect MBP-fusion proteins. Quantification of band intensity was done using the Image J software.

[2] = target: T2, IKKα/β heterodimer (Homo sapiens, UniProt O14920+O15111, S176E/S177E/S180E/S181E); test: MBP-pulldown of reconstituted IKKα/β heterodimer; type: binding
T2 construct: co-expression of 6×His-IKKβ(1-669) EE and Strep-IKKα(10-667) EE constructs in insect cells; Strep (followed by TEV site) (N); 6×His (followed by TEV site) (N); made in house; host or cells: Sf21 insect cells (co-infection with two baculoviruses)
T2 sequence (O15111 10-667 S176E/S180E): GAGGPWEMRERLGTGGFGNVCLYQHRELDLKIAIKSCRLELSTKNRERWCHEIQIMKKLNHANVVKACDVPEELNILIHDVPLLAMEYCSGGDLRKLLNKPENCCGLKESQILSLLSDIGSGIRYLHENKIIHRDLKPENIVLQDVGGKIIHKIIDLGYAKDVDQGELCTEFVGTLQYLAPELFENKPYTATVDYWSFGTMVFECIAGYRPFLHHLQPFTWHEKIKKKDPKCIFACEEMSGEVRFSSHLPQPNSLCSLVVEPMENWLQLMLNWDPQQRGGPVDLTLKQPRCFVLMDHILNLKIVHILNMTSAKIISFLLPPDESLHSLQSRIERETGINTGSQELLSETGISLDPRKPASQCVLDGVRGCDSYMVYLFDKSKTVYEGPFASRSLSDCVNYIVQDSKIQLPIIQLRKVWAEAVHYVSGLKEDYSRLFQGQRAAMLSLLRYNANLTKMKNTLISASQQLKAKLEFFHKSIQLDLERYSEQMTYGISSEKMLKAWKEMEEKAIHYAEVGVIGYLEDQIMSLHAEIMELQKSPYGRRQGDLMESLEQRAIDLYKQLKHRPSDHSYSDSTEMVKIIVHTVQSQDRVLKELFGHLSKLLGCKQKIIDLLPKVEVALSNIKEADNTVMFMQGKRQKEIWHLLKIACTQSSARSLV
T2 sequence (O14920 1-669 S177E/S181E): T1 sequence (O14920 1-669 S177E/S181E)
Protocol: IKKα/β heterodimer. SF21 cells expressing the Strep-IKKα(10-667) EE and 6×His-IKKβ(1-669) EE proteins were resuspended in lysis buffer (100 mM Tris-HCl pH 8.0, 150 mM NaCl, 10% glycerol, 2 mM DTT, 2 μg/ml DNaseI, 0.2 μg/ml RNAse, Roche Complete protease inhibitor cocktail) and lysed by mild sonication. Lysates were centrifuged at 14500 g for 45 minutes at 4° C. The supernatants were applied by gravity flow to Strep-Tactin XT 4F resin (IBA-lifesciences) pre-equilibrated in wash buffer (100 mM Tris-HCl pH 8, 150 mM NaCl, 10% glycerol, 1 mM EDTA, and 2 mM DTT). The resin was extensively washed with wash buffer and the proteins eluted with elution buffer (100 mM Tris-HCl pH 8, 150 mM NaCl, 10% glycerol, 2 mM DTT, and 50 mM biotin). The eluate was then applied to Ni^2+-NTA resin, which was washed and eluted as described above for the IKK homodimers. IKKα/β heterodimer samples were then concentrated and incubated in presence of 1 mM ATP plus additives (see above) for 1 hour on ice. Finally, samples were purified by gel filtration chromatography using a Superdex 200 10/30 column (GE Healthcare) pre-equilibrated in gel filtration buffer 1 (20 mM Tris-HCl PH 8.0, 150 mM NaCl, 5% Glycerol, 2 mM DTT).
Experiments were performed in PD buffer (20 mM Tris pH 8.0, 150 mM NaCl, 2 mM DTT). […] Quantification of band intensity was done using the Image J software. […]

SMILES | interaction with IKKβ by pulldown [1] | binding of IKKα/β heterodimer by pulldown [2]
CC(C)C[C@H](NC(=O)[C@@H](NC(=O)[C@H](CC(C)C)NC(=O)[C@H](CCCNC(=N)N)NC(=O)[C@H](CCC(N)=O)NC(=O)CNC(=O)CNC(=O)[C@H](Cc1ccccc1)NC(=O)[C@@H](NC(=O)[C@H](CC(C)C)NC(=O)[C@H](CC(=O)O)NC(=O)[C@H](CC(=O)O)NC(=O)[C@H](Cc1ccc(O)cc1)NC(=O)[C@@H]1CCCN1C(=O)[C@H](CC(C)C)NC(=O)[C@H](CCC(=O)O)NC(=O)[C@H](CC(=O)O)NC(=O)[C@H](CCC(=O)O)NC(=O)[C@@H](NC(=O)[C@H](Cc1ccccc1)NC(=O)[C@@H](N)CCC(=O)O)[C@@H](C)O)C(C)C)[C@@H](C)O)C(=O)O [IkBα pep C308L] (H-EFTEDELPYDDLVFGGQRLTL-OH; N-terminus and C-terminus assumed) | clearly enhance binding to IKKβ | 
CC(C)C[C@H](NC(=O)[C@@H](NC(=O)[C@H](CC(C)C)NC(=O)[C@H](CCCNC(=N)N)NC(=O)[C@H](CCC(N)=O)NC(=O)CNC(=O)CNC(=O)[C@H](Cc1ccccc1)NC(=O)[C@@H](NC(=O)[C@H](CS)NC(=O)[C@H](CC(=O)O)NC(=O)[C@H](CC(=O)O)NC(=O)[C@H](Cc1ccc(O)cc1)NC(=O)[C@@H]1CCCN1C(=O)[C@H](CC(C)C)NC(=O)[C@H](CCC(=O)O)NC(=O)[C@H](CC(=O)O)NC(=O)[C@H](CCC(=O)O)NC(=O)[C@@H](NC(=O)[C@H](Cc1ccccc1)NC(=O)[C@@H](N)CCC(=O)O)[C@@H](C)O)C(C)C)[C@@H](C)O)C(=O)O [IκBα pep] (H-EFTEDELPYDDCVFGGQRLTL-OH; N-terminus and C-terminus assumed) |  | efficiently binds
